Measurements published in patent publication US20250388553A1 (Incyte Corporation, priority 2018, published 2025).
Where a name gives a salt, the structure may show the parent alone. Read-outs that look alike come from different tables or passages of the source.

Experiments:
[1] = molecular target: PI3Kγ (p110γ) Recombinant Human Protein (Homo sapiens (Human), UniProt P48736); experiment: PI3K-γ scintillation proximity assay; format: biochemical
[2] = molecular target: PI3Kδ (p1106/p85a) Recombinant Human Protein (Homo sapiens (Human), UniProt O00329); experiment: PI3Kδ scintillation proximity assay; format: biochemical
[3] = tested on: Phosphorylated Ribosomal Protein S6 (RPS6) in THP-1 cells; experiment: THP-1 RPS6 ELISA assay; format: cell-based, Human
Description: Example A. THP-1 RPS6 ELISA Assay
To measure the Phosphorylated Ribosomal Protein S6 (RPS6) in cell lysates, THP-1 cells (Human Acute Monocytic Leukemia) are purchased from ATCC (Manassas, VA) and maintained in RPMI with 10% FBS (Gibco/Life Technologies, Carlsbad, CA). For the assay, THP-1 cells are serum starved overnight in RPMI, then plated in RPMI (2×10^5 cells/well in […]) into 96-well flat-bottom tissue culture treated plates (Corning, Corning, NY), in the presence or absence of a concentration range of test compounds. Covered plates are incubated for 2 hours at 37° C., 5% CO2 then treated with or without 10 nM MCP-1(MYBioSource, San Diego, CA) for 15 minutes at 37° C., 5% CO2. Plates are centrifuged at 1600 RPM and supernatants are removed. Cells are lysed in Lysis Buffer (Cell Signaling, Danvers, MA) with Protease Inhibitor (Calbiochem/EMD, Germany), PMSF (Sigma, St Louis MO), HALTS (Thermo Fisher, Rockford, IL) for 30 min on wet ice. Cell lysates are frozen at −80° C. before testing. The lysates are tested in the Human/Mouse/Rat Phospho-RPS6 ELISA (R&D Systems, Inc. Minn, MN). The plate is measured using a microplate reader (SpectraMax M5—Molecular Devices, LLC Sunnyvale, CA) set to 450 nm with a wavelength correction of 540. IC50 determination is performed by fitting the curve of inhibitor percent inhibition versus the log of the inhibitor concentration using the GraphPad Prism 5.0 software.
The compounds of the Examples were tested in the assays described in Examples A, B and C and found to have the IC50s are shown in Tables A1, A2, A3 and A4.

[4] = Table A3, scintillation proximity assay, recombinant human p110γ
[5] = Table A3, scintillation proximity assay, recombinant human PI3Kδ
[6] = Homo sapiens, Table A3, THP-1 cells, 10 nM MCP-1, phospho-RPS6 ELISA, read-out: PI3Kγ_THP1_RPS6_ELISA IC50
[7] = Table A4, scintillation proximity assay, recombinant human p110γ
[8] = Table A4, scintillation proximity assay, recombinant human PI3Kδ
[9] = Homo sapiens, Table A4, THP-1 cells, 10 nM MCP-1, phospho-RPS6 ELISA, read-out: PI3Kγ_THP1_RPS6_ELISA IC50

PI3Kγ (p110γ) Recombinant Human Protein, sequence (P48736 whole entry): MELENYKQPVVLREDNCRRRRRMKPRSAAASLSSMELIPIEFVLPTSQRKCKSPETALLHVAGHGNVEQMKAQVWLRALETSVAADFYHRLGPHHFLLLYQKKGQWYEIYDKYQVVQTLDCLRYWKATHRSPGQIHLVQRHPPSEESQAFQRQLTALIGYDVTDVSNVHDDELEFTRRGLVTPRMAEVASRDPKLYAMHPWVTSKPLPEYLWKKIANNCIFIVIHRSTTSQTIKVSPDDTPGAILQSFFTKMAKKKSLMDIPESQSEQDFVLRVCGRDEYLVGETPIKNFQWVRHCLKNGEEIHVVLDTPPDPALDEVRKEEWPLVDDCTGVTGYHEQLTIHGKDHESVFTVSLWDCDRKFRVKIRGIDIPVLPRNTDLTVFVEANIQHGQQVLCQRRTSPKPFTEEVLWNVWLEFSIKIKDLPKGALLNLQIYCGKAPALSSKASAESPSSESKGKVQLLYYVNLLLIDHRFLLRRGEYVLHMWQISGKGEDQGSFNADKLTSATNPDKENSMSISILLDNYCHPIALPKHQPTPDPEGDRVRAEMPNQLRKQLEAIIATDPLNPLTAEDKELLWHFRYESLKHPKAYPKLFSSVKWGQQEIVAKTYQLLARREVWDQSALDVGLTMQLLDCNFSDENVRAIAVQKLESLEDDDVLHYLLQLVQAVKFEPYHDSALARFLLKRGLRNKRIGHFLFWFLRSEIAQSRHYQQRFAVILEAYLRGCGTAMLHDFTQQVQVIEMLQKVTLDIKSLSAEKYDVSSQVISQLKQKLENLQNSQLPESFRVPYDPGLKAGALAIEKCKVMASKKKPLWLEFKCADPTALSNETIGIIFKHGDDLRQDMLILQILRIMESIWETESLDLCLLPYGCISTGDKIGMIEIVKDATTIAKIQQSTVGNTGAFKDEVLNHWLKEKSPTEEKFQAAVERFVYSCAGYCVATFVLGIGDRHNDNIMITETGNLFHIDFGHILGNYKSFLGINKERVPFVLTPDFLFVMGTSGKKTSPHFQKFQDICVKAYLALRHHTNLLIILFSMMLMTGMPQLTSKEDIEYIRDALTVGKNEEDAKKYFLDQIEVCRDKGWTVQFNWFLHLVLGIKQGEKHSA
PI3Kδ (p1106/p85a) Recombinant Human Protein, sequence (O00329 whole entry): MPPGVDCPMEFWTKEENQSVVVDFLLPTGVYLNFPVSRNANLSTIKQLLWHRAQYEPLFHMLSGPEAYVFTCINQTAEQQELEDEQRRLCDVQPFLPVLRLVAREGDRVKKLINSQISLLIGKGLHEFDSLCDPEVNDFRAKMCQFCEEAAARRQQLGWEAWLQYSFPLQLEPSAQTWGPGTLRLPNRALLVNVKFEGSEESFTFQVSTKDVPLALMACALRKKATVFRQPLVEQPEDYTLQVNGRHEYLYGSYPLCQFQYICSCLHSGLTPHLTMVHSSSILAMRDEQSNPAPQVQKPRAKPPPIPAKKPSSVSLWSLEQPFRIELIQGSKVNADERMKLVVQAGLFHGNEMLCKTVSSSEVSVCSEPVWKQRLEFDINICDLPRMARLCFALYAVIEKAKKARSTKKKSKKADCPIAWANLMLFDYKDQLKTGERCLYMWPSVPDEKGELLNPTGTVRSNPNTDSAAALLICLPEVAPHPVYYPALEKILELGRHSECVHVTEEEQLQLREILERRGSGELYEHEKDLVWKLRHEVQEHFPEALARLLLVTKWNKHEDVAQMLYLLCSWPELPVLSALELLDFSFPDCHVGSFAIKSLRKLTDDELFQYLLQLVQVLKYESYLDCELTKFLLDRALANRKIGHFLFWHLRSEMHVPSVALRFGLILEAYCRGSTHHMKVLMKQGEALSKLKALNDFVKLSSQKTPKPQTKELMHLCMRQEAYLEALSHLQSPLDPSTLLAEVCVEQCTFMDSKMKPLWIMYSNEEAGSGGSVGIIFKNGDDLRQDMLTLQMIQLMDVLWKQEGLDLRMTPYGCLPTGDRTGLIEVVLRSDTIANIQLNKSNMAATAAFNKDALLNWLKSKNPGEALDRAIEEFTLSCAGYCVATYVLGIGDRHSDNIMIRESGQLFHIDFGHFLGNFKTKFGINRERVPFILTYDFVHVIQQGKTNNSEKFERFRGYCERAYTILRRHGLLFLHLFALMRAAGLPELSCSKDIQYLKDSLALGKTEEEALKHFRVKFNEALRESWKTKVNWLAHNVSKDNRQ
PI3Kδ (p1106/p85a) Recombinant Human Protein, sequence (P27986 whole entry partner): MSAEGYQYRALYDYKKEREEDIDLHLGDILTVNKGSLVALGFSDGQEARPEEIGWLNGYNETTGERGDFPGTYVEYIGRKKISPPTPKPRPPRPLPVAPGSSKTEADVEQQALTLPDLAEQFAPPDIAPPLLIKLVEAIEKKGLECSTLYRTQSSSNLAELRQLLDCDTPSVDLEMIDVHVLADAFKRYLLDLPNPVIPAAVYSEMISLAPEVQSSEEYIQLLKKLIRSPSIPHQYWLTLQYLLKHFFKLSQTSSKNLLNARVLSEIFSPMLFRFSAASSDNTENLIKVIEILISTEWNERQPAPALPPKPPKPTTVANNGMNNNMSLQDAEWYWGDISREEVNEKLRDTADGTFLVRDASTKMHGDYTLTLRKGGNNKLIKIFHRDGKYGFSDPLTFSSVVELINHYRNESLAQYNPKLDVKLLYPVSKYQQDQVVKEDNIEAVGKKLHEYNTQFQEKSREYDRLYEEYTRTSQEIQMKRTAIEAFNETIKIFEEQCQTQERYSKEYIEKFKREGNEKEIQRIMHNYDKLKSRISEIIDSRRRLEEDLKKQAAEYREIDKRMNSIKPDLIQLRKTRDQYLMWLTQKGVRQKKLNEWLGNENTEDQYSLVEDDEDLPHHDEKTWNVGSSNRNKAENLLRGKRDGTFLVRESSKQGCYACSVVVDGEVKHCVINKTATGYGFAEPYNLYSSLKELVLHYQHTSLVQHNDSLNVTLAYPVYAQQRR

| SMILES | IC50 [1, 4] [nM] | IC50 [2, 5] [nM] | IC50 [3, 6] [nM] | other results |
| --- | --- | --- | --- | --- |
| CNC(=O)c1ccc(-c2nc(-c3cc(C(O)(C(N)=O)C(F)(F)F)ccc3C)cnc2N)cn1 (stereo not drawn) [Example 80, 5-(3-amino-6-(5-(3-amino-1,1,1-trifluoro-2-hydroxy-3-oxopropan-2-yl)-2-methylphenyl)pyrazin-2-yl)-N-methylpicolinamide bistrifluoroacetate] | < 100 | 100 to 500 | 500 to 1000 |  |
| Cc1ccc(C(O)(C(N)=O)C(F)(F)F)cc1-c1cnc(N)c(-c2cncnc2)n1 (stereo not drawn) [Example 81, 2-(3-(5-amino-6-(pyrimidin-5-yl)pyrazin-2-yl)-4-methylphenyl)-3,3,3-trifluoro-2-hydroxypropanamide trifluoroacetate] | < 100 | 100 to 500 | 100 to 500 |  |
| Cc1ccc(-c2nc(-c3cc(C(O)(C(N)=O)C(F)(F)F)ccc3C)cnc2N)cn1 (stereo not drawn) [Example 82, 2-(3-(5-amino-6-(6-methylpyridin-3-yl)pyrazin-2-yl)-4-methylphenyl)-3,3,3-trifluoro-2-hydroxypropanamide bistrifluoroacetate] | < 100 | < 100 | 100 to 500 |  |
| Cc1ccc(C(O)(C(N)=O)C(F)(F)F)cc1-c1cnc(N)c(-c2ccc(C(F)(F)F)nc2)n1 (stereo not drawn) [Example 83, 2-(3-(5-amino-6-(6-(trifluoromethyl)pyridin-3-yl)pyrazin-2-yl)-4-methylphenyl)-3,3,3-trifluoro-2-hydroxypropanamide bistrifluoroacetate] | < 100 | < 100 | 100 to 500 |  |
| Cc1ccc(C(O)(C(N)=O)C(F)(F)F)cc1-c1cnc(N)c(-c2cnc(C3CC3)s2)n1 (stereo not drawn) [Example 84, 2-(3-(5-amino-6-(2-cyclopropylthiazol-5-yl)pyrazin-2-yl)-4-methylphenyl)-3,3,3-trifluoro-2-hydroxypropanamide trifluoroacetate] | < 100 | < 100 | 100 to 500 |  |
| Cc1ccc(C(O)(C(N)=O)C(F)(F)F)cc1-c1cnc(N)c(-c2ccnc(CO)c2)n1 (stereo not drawn) [Example 85, 2-(3-(5-amino-6-(2-(hydroxymethyl)pyridin-4-yl)pyrazin-2-yl)-4-methylphenyl)-3,3,3-trifluoro-2-hydroxypropanamide bistrifluoroacetate] | < 100 | < 100 | 100 to 500 |  |
| Cc1ccc(C(O)(C(N)=O)C(F)(F)F)cc1-c1cnc(N)c(-c2cnn(CC3CC3)c2)n1 (stereo not drawn) [Example 86, 2-(3-(5-amino-6-(1-(cyclopropylmethyl)-1H-pyrazol-4-yl)pyrazin-2-yl)-4-methylphenyl)-3,3,3-trifluoro-2-hydroxypropanamide trifluoroacetate] | < 100 | < 100 | < 100 |  |
| Cc1ccc(C(O)(C(N)=O)C(F)(F)F)cc1-c1cnc(N)c(-c2ccc(CC#N)cc2)n1 (stereo not drawn) [Example 87, 2-(3-(5-amino-6-(4-(cyanomethyl)phenyl)pyrazin-2-yl)-4-methylphenyl)-3,3,3-trifluoro-2-hydroxypropanamide trifluoroacetate] | < 100 | < 100 | 100 to 500 |  |
| Cc1ccc(C(O)(C(N)=O)C(F)(F)F)cc1-c1cnc(N)c(-c2ccc(CO)cc2)n1 (stereo not drawn) [Example 88, 2-(3-(5-amino-6-(4-(hydroxymethyl)phenyl)pyrazin-2-yl)-4-methylphenyl)-3,3,3-trifluoro-2-hydroxypropanamide trifluoroacetate] | < 100 | < 100 | 100 to 500 |  |
| CNC(=O)c1ccc(-c2nc(-c3cc(C(O)(C(N)=O)C(F)(F)F)ccc3C)cnc2N)cc1 (stereo not drawn) [Example 89, 4-(3-amino-6-(5-(3-amino-1,1,1-trifluoro-2-hydroxy-3-oxopropan-2-yl)-2-methylphenyl)pyrazin-2-yl)-N-methylbenzamide trifluoroacetate] | < 100 | < 100 | 100 to 500 |  |
| Cc1ccc(C(O)(C(N)=O)C(F)(F)F)cc1-c1cnc(N)c(-c2cccc(C(C)C)c2)n1 (stereo not drawn) [Example 90, 2-(3-(5-amino-6-(3-isopropylplienyl)pyrazin-2-yl)-4-methylphenyl)-3?3,3-trifluoro-2-hydroxypropanamide trifluoroacetate] | < 100 | 100 to 500 |  | IC50 ([3]; Table A3, THP-1 cells, 10 nM MCP-1, phospho-RPS6 ELISA, read-out: PI3Kγ_THP1_RPS6_ELISA IC50): 100 to 500 nM |
| Cc1ccc(C(O)(C(N)=O)C(F)(F)F)cc1-c1cnc(N)c(-c2ccc(C(C)(C)O)cc2)n1 (stereo not drawn) [Example 91, 2-(3-(5-amino-6-(4-(2-hydroxypropan-2-yl)phenyl)pyrazin-2-yl)-4-methylphenyl)-3,3,3-trifluoro-2-hydroxypropanamide trifluoroacetate] | < 100 | < 100 | < 100 |  |
| Cc1ccc(C(O)(C(N)=O)C(F)(F)F)cc1-c1cnc(N)c(-c2ccc(C3CC3)cc2)n1 (stereo not drawn) [Example 92, 2-(3-(5-amino-6-(4-cyclopropylphenyl)pyrazin-2-yl)-4-methylphenyl)-3,3,3-trifluoro-2-hydroxypropanamide trifluoroacetate] | < 100 | 100 to 500 | 100 to 500 |  |
| Cc1ccc(C(O)(C(N)=O)C(F)(F)F)cc1-c1cnc(N)c(-c2ccc(B(O)O)cc2)n1 (stereo not drawn) [Example 97, (4-(3-Amino-6-(5-(3-amino-1,1,1-trifluoro-2-hydroxy-3-oxopropan-2-yl)-2-methylphenyl)pyrazin-2-yl)phenyl)boronic Acid] | < 100 | < 100 | 100 to 500 |  |
| Cc1ccc(C(O)(CNC=O)C(F)(F)F)cc1-c1cnc(N)c(-c2cn[nH]c2)n1 (stereo not drawn) [Example 103, N-(2-(3-(5-amino-6-(1H-pyrazol-4-yl)pyrazin-2-yl)-4-methylphenyl)-3,3,3-trifluoro-2-hydroxypropyl)formamide trifluoroacetate] | < 100 | 100 to 500 | 100 to 500 |  |
| Cc1ccc(C(O)(C(N)=O)C(F)(F)F)cc1-c1cnc(N)c(N2CCN(C3CC3)C(=O)C2)n1 (stereo not drawn) [Example 112, 2-(3-(5-amino-6-(4-cyclopropyl-3-oxopiperazin-1-yl)pyrazin-2-yl)-4-methylphenyl)-3,3,3-trifluoro-2-hydroxypropanamide Trifluoroacetate] |  |  |  | IC50 [1, 7]: < 100 nM; IC50 [2, 8]: 100 to 500 nM; IC50 [3, 9]: 100 to 500 nM |
| Cc1ccc(C(O)(C(N)=O)C(F)(F)F)cc1-c1cnc(N)c(N2CCN(C(C)(C)C)C(=O)C2)n1 (stereo not drawn) [Example 113, 2-(3-(5-amino-6-(4-tert-butyl-3-oxopiperazin-1-yl)pyrazin-2-yl)-4-methylphenyl)-3,3,3-trifluoro-2-hydroxypropanamide trifluoroacetate] |  |  |  | IC50 [1, 7]: < 100 nM; IC50 [2, 8]: 100 to 500 nM; IC50 [3, 9]: 100 to 500 nM |
| Cc1ccc(C(O)(C(N)=O)C(F)(F)F)cc1-c1cnc(N)c(N2CCN(c3ccccc3C)CC2)n1 (stereo not drawn) [Example 118, 2-(3-(5-amino-6-(4-o-tolylpiperazin-1-yl)pyrazin-2-yl)-4-methylphenyl)-3,3,3-trifluoro-2-hydroxypropanamide trifluoroacetate] |  |  |  | IC50 [1, 7]: < 100 nM; IC50 [2, 8]: 100 to 500 nM; IC50 [3, 9]: 500 to 1000 nM |
| Cc1ccc(C(O)(C(N)=O)C(F)(F)F)cc1-c1cnc(N)c(N2CCN(c3ccc(C#N)cc3)CC2)n1 (stereo not drawn) [Example 123, 2-(3-(5-amino-6-(4-(4-cyanophenyl)piperazin-1-yl)pyrazin-2-yl)-4-methylphenyl)-3,3,3-trifluoro-2-hydroxypropanamide trifluoroacetate] |  |  |  | IC50 [1, 7]: < 100 nM; IC50 [2, 8]: < 100 nM; IC50 [3, 9]: 100 to 500 nM |
| Cc1ccc(C(O)(C(N)=O)C(F)(F)F)cc1-c1cnc(N)c(N2CC(=O)N(c3ccc(O)cc3)[C@@H](CO)C2)n1 (stereo partly drawn) [Example 124, 2-(3-(5-amino-6-((R)-3-(hydroxymethyl)-4-(4-hydroxyphenyl)-5-oxopiperazin-1-yl)pyrazin-2-yl)-4-methylphenyl)-3,3,3-trifluoro-2-hydroxypropanamide trifluoroacetate] |  |  |  | IC50 [1]: < 100 nM; IC50 [2, 8]: 100 to 500 nM; IC50 [3, 9]: 500 to 1000 nM |
| Cc1ccc(C(O)(C(N)=O)C(F)(F)F)cc1-c1cnc(N)c(N2CCN(CCC#N)CC2)n1 (stereo not drawn) [Example 125, 2-(3-(5-amino-6-(4-(2-cyanoethyl)piperazin-1-yl)pyrazin-2-yl)-4-methylphenyl)-3,3,3-trifluoro-2-hydroxypropanamide trifluoroacetate] |  |  |  | IC50 [1]: < 100 nM; IC50 [2]: < 100 nM; IC50 ([3]; Homo sapiens, THP-1, read-out: PI3Kγ_THP1_RPS6_ELISA IC50 (nM)): 100 to 500 nM |
